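Cells were grown in 96-well plates and exposed to each compound for 48 hours at five concentrations; endpoints were interpolated linearly between bracketing concentrations, or set to the highest concentration if not reached. At the TGI there is no net growth.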 Where a SMILES comes first, the peptide text is derived from it. The star is where a group is joined. Boc = CC(C)(C)OC(=O)*
Assays:
Test in all cases: growth of human tumour cells (NCI), 48 h
BT-549 breast = tested on: BT-549 breast
COLO 205 colon = tested on: COLO 205 colon
EKVX NSCLC = tested on: EKVX NSCLC
HCT-116 colon = tested on: HCT-116 colon
HCT-15 colon = tested on: HCT-15 colon
MCF7 breast = tested on: MCF7 breast
NCI/ADR-RES ovarian = tested on: NCI/ADR-RES ovarian
SF-268 CNS = tested on: SF-268 CNS
SN12C renal = tested on: SN12C renal
SNB-75 CNS = tested on: SNB-75 CNS

SMILES	TGI (BT-549 breast) [µM]	TGI (COLO 205 colon) [µM]	TGI (EKVX NSCLC) [µM]	TGI (HCT-116 colon) [µM]	TGI (HCT-15 colon) [µM]	TGI (MCF7 breast) [µM]	TGI (NCI/ADR-RES ovarian) [µM]	TGI (SF-268 CNS) [µM]	TGI (SN12C renal) [µM]	TGI (SNB-75 CNS) [µM]
O=C(/C=C\Nc1ccccc1O)C(Cl)(Cl)Cl	> 100	> 100	> 100	> 100	> 100	64.5	> 100	> 100	> 100	> 100
COC1(OC)C2(Cl)C(Cl)=C(Cl)C1(Cl)C1COCC12 (stereo not given)	> 100	> 100	> 100	> 100	> 100	> 100	> 100	> 100	> 100	> 100
CC(=O)N1N=C(N)CC1=O	> 100	> 100	> 100	> 100	> 100	> 100	> 100	> 100	> 100	> 100
C/C(=N\O)c1cccc(Nc2nc3ccccc3c3occc23)c1	26.9	26.4	25.6	25.8	22.4	37.1	29.7	27.6	33.6	32.3
CCOCC(NC(=O)C(CC(C)C)NC(=O)OC(C)(C)C)C(N)=O (stereo not drawn) (Boc-Leu-Ser(Et)-NH2; configuration not given here)	> 100	> 100	> 100	> 100	> 100	> 100	> 100	> 100	> 100	> 100
O=C(N/N=C\c1ccc([N+](=O)[O-])cc1)Nc1cccc2ccccc12	23.4	> 100	> 100	> 52.2	> 100	> 80.9	> 100	> 55.5	> 100	> 28.8
Nn1c(SCC(=O)NCc2ccccc2)nc2ccccc2c1=O	> 100	> 100	> 100	93.1	> 100	> 100	> 100	> 100	> 100	> 100
CSc1ccc(/C=C2\N=C(c3ccccc3)N(c3nc4c(Cl)cc(Cl)cc4s3)C2=O)cc1	63.5	> 100	49.9	41.5	> 100	> 100	68.2	86.3	56.3	62
CC(NC(=O)C(N)CC(=O)O)NC(=O)N1CCOCC1 (stereo not given)	> 100	> 100	> 100	> 100	> 100	> 100	> 100	> 100	> 100	> 100
CC1(C)C(=O)C2(OS(=O)(=O)C(F)(F)F)CCC1C2 (stereo not given)	> 100	> 100	> 100	> 100	> 100	> 100	> 100	> 100	> 100	> 100
COc1ccc2c(c1)CCCN1CCc3cc(OC)c(OC)cc3C21 (stereo not given)	43.2	> 100	> 100	> 100	> 100	> 100	56	> 100	> 100	> 100
Cc1ccc(Nc2nc(=O)[nH]c(=O)[nH]2)cc1N=[N+]=[N-]	> 100	> 100	> 100	> 100	> 100	> 100	> 100	> 100	> 100	> 100
Nc1nc(N)c2nnn(C[C@H]3CC[C@@H](CO)C3)c2n1	> 100	> 100	> 100	> 100	> 100	> 100	> 100	> 100	93.3	> 100
S=C(c1c[nH]c2ccccc12)N1CCN(c2ccccc2)CC1	> 100	> 100	> 100	> 100	> 100	> 100	> 100	> 100	59.9	21.6
CCOP(=O)(OCC)/C(C#N)=C/c1cccn1N(C)C	> 100	> 100	> 100	> 100	> 100	> 100	> 100	> 100	> 100	> 100
Cc1ccc2cccc3c2c1CC1(C3=O)S(=O)(=O)OCCOS1(=O)=O	> 100	> 100	> 100	> 100	> 100	> 100	> 100	> 100	> 100	> 100
O=C(/C=C/c1cccs1)c1cccc(C(=O)/C=C/c2cccs2)n1	> 100	> 100	> 100	11.3	> 100	> 100	> 100	> 68.5	> 58.8	> 100
CCCC#CC(O)(C(=O)OC1CCN(C)CC1)C1CCCCC1 (stereo not given)	> 100	> 100	> 100	> 100	> 100	> 100	> 100	> 100	> 100	> 100

— PubChem BioAssay (NCI)
